In patent US12077503B2, “Substituted cyclic amides and their use as herbicides” (FMC CORPORATION, priority 2015, dated 2024):

What was measured:
Assay type in all cases: in vivo
rice (Oryra sativa) = experiment: Test B flooded paddy test; details: Oryza sativa, 250 g ai/ha, Flood; 0 to 100 scale where 0 is no effect and 100 is complete control; read-out: Rice plant response rating
Method in brief: (§1)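 Response scored visually against untreated controls, 0 = no effect and 100 = complete control, 13–15 d after treatment in the greenhouse. Compounds added to paddy water held 3 cm above soil surface. Treatment given at 2-leaf stage.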

[1] = tested on: barnyardgrass (Echinochloa crus-galli); experiment: Test B flooded paddy test; details: Echinochloa crus-galli, 250 g ai/ha, Flood; 0 to 100 scale where 0 is no effect and 100 is complete control; read-out: Barnyardgrass plant response rating
Method in brief: as §1

[2] = tested on: ducksalad (Heteranthera limosa); experiment: Test B flooded paddy test; details: Heteranthera limosa, 250 g ai/ha, Flood; 0 to 100 scale where 0 is no effect and 100 is complete control; read-out: Ducksalad plant response rating
Method in brief: as §1

[3] = tested on: sedge, umbrella (small-flower umbrella sedge, Cyperus difformis); experiment: Test B flooded paddy test; details: Cyperus difformis, 250 g ai/ha, Flood; 0 to 100 scale where 0 is no effect and 100 is complete control; read-out: Sedge, Umbrella plant response rating
Method in brief: as §1

[4] = tested on: Galium (catchweed bedstraw, Galium aparine); experiment: Test A postemergence; details: Galium, post-emergence, 240 h, postemergence; for pest or weed control at 125 g/ha: 125 g ai/ha, visual injury vs untreated controls after approx. 10 d, 0 = no effect, 100 = complete control, read-out: Galium plant response rating (0 to 100 scale); for pest or weed control at 500 g/ha: 500 g ai/ha, 0 to 100 scale, 0 is no effect, 100 is complete control, read-out: Galium plant response rating
Method in brief: (§2)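 Visual injury, scored on a 0–100 scale relative to untreated controls, was recorded about 10 d after application. Treatments were a preemergence soil spray over planted seeds or a postemergence spray on plants at the one- to two-leaf stage, 2 to 10 cm tall, all in loam soil–sand blend in the greenhouse.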

[5] = tested on: ragweed (common ragweed, Ambrosia elatior); experiment: Test A postemergence; details: Ambrosia artemisiifolia, post-emergence, 240 h, postemergence; for pest or weed control at 125 g/ha: 125 g ai/ha, visual injury vs untreated controls after approx. 10 d, 0 = no effect, 100 = complete control, read-out: Ragweed plant response rating (0 to 100 scale); for pest or weed control at 500 g/ha: 500 g ai/ha, 0 to 100 scale, 0 is no effect, 100 is complete control, read-out: Ragweed plant response rating
Method in brief: as §2

[6] = tested on: ryegrass, Italian (Italian ryegrass, Lolium multiflorum); experiment: Test A postemergence; details: Lolium multiflorum, post-emergence, 240 h, postemergence; for pest or weed control at 125 g/ha: 125 g ai/ha, visual injury vs untreated controls after approx. 10 d, 0 = no effect, 100 = complete control, read-out: Ryegrass, Italian plant response rating (0 to 100 scale); for pest or weed control at 500 g/ha: 500 g ai/ha, 0 to 100 scale, 0 is no effect, 100 is complete control, read-out: Ryegrass, Italian plant response rating
Method in brief: as §2

[7] = tested on: wheat (Triticum aestivum); experiment: Test A postemergence; details: Triticum aestivum, post-emergence, 240 h, postemergence; for plant injury at 125 g/ha: 125 g ai/ha, visual injury vs untreated controls after approx. 10 d, 0 = no effect, 100 = complete control, read-out: Wheat plant response rating (0 to 100 scale); for plant injury at 500 g/ha: 500 g ai/ha, 0 to 100 scale, 0 is no effect, 100 is complete control, read-out: Wheat plant response rating
Method in brief: as §2

Kochia (Kochia scoparia) [8] = experiment: Test A postemergence; details: Bassia scoparia, post-emergence, 240 h, postemergence; for pest or weed control at 125 g/ha: 125 g ai/ha, visual injury vs untreated controls after approx. 10 d, 0 = no effect, 100 = complete control, read-out: Kochia plant response rating (0 to 100 scale); for pest or weed control at 500 g/ha: 500 g ai/ha, 0 to 100 scale, 0 is no effect, 100 is complete control, read-out: Kochia plant response rating
Method in brief: as §2

[9] = tested on: barnyardgrass (Echinochloa crus-galli); experiment: Test A preemergence; details: Echinochloa crus-galli, pre-emergence, 240 h, preemergence, 0 to 100 scale where 0 is no effect and 100 is complete control, read-out: Barnyardgrass plant response rating; for pest or weed control at 125 g/ha: 125 g ai/ha, visual injury rating, approximately 10 d; for pest or weed control at 500 g/ha: 500 g ai/ha
Method in brief: as §2

[10] = tested on: pigweed (Amaranthus retroflexus); experiment: Test A preemergence; details: Amaranthus retroflexus, pre-emergence, 240 h, preemergence, 0 to 100 scale where 0 is no effect and 100 is complete control, read-out: Pigweed plant response rating; for pest or weed control at 125 g/ha: 125 g ai/ha, visual injury rating, approximately 10 d; for pest or weed control at 500 g/ha: 500 g ai/ha
[11] = tested on: giant foxtail (Setaria faberii); experiment: Test A preemergence; details: Setaria faberi, pre-emergence, 240 h, preemergence, 0 to 100 scale where 0 is no effect and 100 is complete control, read-out: Foxtail, Giant plant response rating; for pest or weed control at 125 g/ha: 125 g ai/ha, visual injury rating, approximately 10 d; for pest or weed control at 500 g/ha: 500 g ai/ha
Method in brief: as §2

[12] = tested on: ragweed (common ragweed, Ambrosia elatior); experiment: Test A preemergence; details: Ambrosia artemisiifolia, pre-emergence, 240 h, preemergence, 0 to 100 scale where 0 is no effect and 100 is complete control, read-out: Ragweed plant response rating; for pest or weed control at 125 g/ha: 125 g ai/ha, visual injury rating, approximately 10 d; for pest or weed control at 500 g/ha: 500 g ai/ha
Method in brief: as §2

[13] = tested on: ryegrass, Italian (Italian ryegrass, Lolium multiflorum); experiment: Test A preemergence; details: Lolium multiflorum, pre-emergence, 240 h, preemergence, 0 to 100 scale where 0 is no effect and 100 is complete control, read-out: Ryegrass, Italian plant response rating; for pest or weed control at 125 g/ha: 125 g ai/ha, visual injury rating, approximately 10 d; for pest or weed control at 500 g/ha: 500 g ai/ha
Method in brief: as §2

Kochia (Kochia scoparia) [14] = experiment: Test A preemergence; details: Bassia scoparia, pre-emergence, 240 h, preemergence, 0 to 100 scale where 0 is no effect and 100 is complete control, read-out: Kochia plant response rating; for pest or weed control at 125 g/ha: 125 g ai/ha, visual injury rating, approximately 10 d; for pest or weed control at 500 g/ha: 500 g ai/ha
Method in brief: as §2

Structure (SMILES)	pest or weed control at 250 g/ha (rice (Oryra sativa)) [%]	pest or weed control at 250 g/ha [1] [%]	pest or weed control at 250 g/ha [2] [%]	pest or weed control at 250 g/ha [3] [%]	pest or weed control at 125 g/ha [4] [%]	pest or weed control at 500 g/ha [4] [%]	pest or weed control at 125 g/ha [5] [%]	pest or weed control at 500 g/ha [5] [%]	pest or weed control at 125 g/ha [6] [%]	pest or weed control at 500 g/ha [6] [%]	plant injury at 125 g/ha [7] [%]	pest or weed control at 125 g/ha (Kochia (Kochia scoparia) [8]) [%]	pest or weed control at 500 g/ha (Kochia (Kochia scoparia) [8]) [%]	pest or weed control at 125 g/ha [9] [%]	pest or weed control at 500 g/ha [9] [%]	pest or weed control at 125 g/ha [10] [%]	pest or weed control at 500 g/ha [10] [%]	pest or weed control at 125 g/ha [11] [%]	pest or weed control at 500 g/ha [11] [%]	pest or weed control at 125 g/ha [12] [%]	further results
COc1ccc([C@H]2CN(C)C(=O)[C@@H]2C(=O)Nc2cccc(F)c2F)c(OC)c1 [Compound 1209]	0	0	50	0	0	30	0	0	0	20	0	0	50	90	90	0	0	90	100	60	plant injury at 500 g/ha [7]: 20%; pest or weed control at 500 g/ha [12]: 90%; pest or weed control at 125 g/ha [13]: 0%; pest or weed control at 500 g/ha [13]: 50%; pest or weed control at 125 g/ha (Kochia (Kochia scoparia) [14]): 60%; pest or weed control at 500 g/ha (Kochia (Kochia scoparia) [14]): 90%
COc1cc([C@H]2CN(C)C(=O)[C@@H]2C(=O)Nc2cccc(F)c2F)cc(OC)c1OC [Compound 1210]	20	50	30	0	0	0	0	0	30	60	0	0	0	90	100	0	0	100	100	0	plant injury at 500 g/ha [7]: 60%; pest or weed control at 500 g/ha [12]: 0%; pest or weed control at 125 g/ha [13]: 20%; pest or weed control at 500 g/ha [13]: 50%; pest or weed control at 125 g/ha (Kochia (Kochia scoparia) [14]): 0%; pest or weed control at 500 g/ha (Kochia (Kochia scoparia) [14]): 10%
CSc1ccccc1NC(=O)[C@H]1C(=O)N(C)C[C@@H]1c1ccc(OC(F)F)cc1 [Compound 1212]	0	0	95	0	50	60	0	30	0	20	0	60	80	80	100	80	90	90	100	40	plant injury at 500 g/ha [7]: 40%; pest or weed control at 500 g/ha [12]: 90%; pest or weed control at 125 g/ha [13]: 0%; pest or weed control at 500 g/ha [13]: 70%; pest or weed control at 125 g/ha (Kochia (Kochia scoparia) [14]): 100%; pest or weed control at 500 g/ha (Kochia (Kochia scoparia) [14]): 100%
Cc1c(F)cccc1NC(=O)[C@H]1C(=O)N(C)C[C@@H]1c1ccc(F)cc1 [Compound 1235]	80	100	90	75	50	70	0	30	0	30	40	30	50	100	100	30	90	100	100	70	pest or weed control at 500 g/ha [12]: 90%; pest or weed control at 125 g/ha [13]: 50%; pest or weed control at 500 g/ha [13]: 60%; pest or weed control at 125 g/ha (Kochia (Kochia scoparia) [14]): 60%; pest or weed control at 500 g/ha (Kochia (Kochia scoparia) [14]): 80%
